This note sets out measurements from patent US20240069010A1, “TISSUE ORGANOID BIOPRINTING AND HIGH-THROUGHPUT SCREENING METHODOLOGY” (priority 2020, published 2024).

For series [1], the system named is MCF-7 organoids. In words: Endpoint ATP-release assay (CellTiter-Glo) of organoid viability. It is filed as cell-based. Particulars: for viability at 0.1 µM / viability at 1 µM / viability at 10 µM / viability at 50 µM: Homo sapiens. Here is the method:
(§1) All drug treatments of 3D organoids were performed in serum-free conditions in MammoCult™ medium supplemented with 1% antibiotic-antimycotic (Gibco 15240-062). A detailed protocol for the drug screening has been published previously in Phan, N. et al. supra; and Nguyen, H. T. L. & Soragni, supra. Briefly, the culture medium was fully removed three days after seeding and replaced with 100 μL of MammoCult™ medium containing the indicated treatments using an automated pipetting system (EpMotion® 96). After treatment, we transferred the organoids to the HSLCI for imaging. Organoids were imaged by HSLCI between 6 hours and 48 hours after treatment. After imaging, we performed an ATP assay to assess cell viability in accordance with the manufacturer's instructions. The media was aspirated from each well and replaced with 50 μL of 5 mg/mL Dispase (Thermo-Fisher) solution to digest the Matrigel. After a 25-minute incubation at 37° C., the plate was placed on an orbital shaker for 5 minutes at 80 RPM. We then added 30 μL of CellTiter-Glo® reagent (Promega), sealed the plate with film, covered the plate with foil to protect from light, shook the plate for 5 minutes at 80 RPM, and incubated at room temperature for an additional 20 minutes. We used a SpectraMax iD3 plate reader to measure luminescence. The program parameters for luminescence readings were 5 minutes of shaking prior to reading, reading all wavelengths, and integrating signal over 500 ms. Organoid viability within each well was calculated by dividing the luminescent signal from each well by the mean luminescence of the control (1% DMSO) wells. Two-tailed independent t-tests were performed to assess the statistical significance of the differences in organoid mass and cell viability. P-values less than 0.05 were deemed significant.

For series [2], the system named is BT-474 organoids. Described as above. Particulars: for viability at 0.1 µM / viability at 1 µM / viability at 10 µM / viability at 50 µM: Homo sapiens. It is filed as cell-based. The protocol: as §1, with “Organoids were imaged by HSLCI between 6 hours and 48 hours after treatment. After imaging, we performed an ATP assay to assess cell viability in accordance with the manufacturer's instructions.” left out

Setting [3] is: MCF7, 6 h, read-out: Comparisons of cell viability measures by ATP detection assay, Mean mass ± SD.
[4] abbreviates: MCF7, 72 h, read-out: Organoid viability by endpoint ATP assay, Viability ± SD.
[5] abbreviates: BT-474, 48 h, read-out: Comparisons of cell viability measures by ATP detection assay, Mean mass ± SD.
Where [6] appears, read: BT-474, 72 h, read-out: Organoid viability by endpoint ATP assay, Viability ± SD.

Molecules are shown by their SMILES. Like-named read-outs stand apart in the source and are kept apart here.

Take `CS(=O)(=O)CCNCc1ccc(-c2ccc3ncnc(Nc4ccc(OCc5cccc(F)c5)c(Cl)c4)c3c2)o1` [Lapatinib, lapatinib]: the viability at 0.1 µM is 100 ± 3% in series [1] (MCF7, MCF-7, 0.1 μM, 72 h of treatment, luminescence relative to 1% DMSO control, read-out: Organoid viability by endpoint ATP assay, Viability ± SD); 100 ± 3% in series [1] (MCF7, listed as printed as 6 hours, 0.1 μM, relative to 1% DMSO, read-out: Comparisons of cell viability measures by ATP detection assay, Mean mass ± SD); 70 ± 18% in series [2] (BT-474, listed as printed as 48 hours, 0.1 μM, relative to 1% DMSO, read-out: Comparisons of cell viability measures by ATP detection assay, Mean mass ± SD); 70 ± 18% in series [2] (BT-474, 0.1 μM, 72 h of treatment, luminescence relative to 1% DMSO control, read-out: Organoid viability by endpoint ATP assay, Viability ± SD). Further, the viability at 1 µM in series [1] (MCF7, MCF-7, 1 μM, 72 h of treatment, luminescence relative to 1% DMSO control, read-out: Organoid viability by endpoint ATP assay, Viability ± SD) amounted to 101 ± 4%; in series [1] (MCF7, listed as printed as 6 hours, 1 μM, relative to 1% DMSO, read-out: Comparisons of cell viability measures by ATP detection assay, Mean mass ± SD) it was 101 ± 4%; in series [2] (BT-474, listed as printed as 48 hours, 1 μM, relative to 1% DMSO, read-out: Comparisons of cell viability measures by ATP detection assay, Mean mass ± SD) it was 43 ± 9%; in series [2] (BT-474, 1 μM, 72 h of treatment, luminescence relative to 1% DMSO control, read-out: Organoid viability by endpoint ATP assay, Viability ± SD), 43 ± 9%. The viability at 10 µM in series [1] (MCF7, MCF-7, 10 μM, 72 h of treatment, luminescence relative to 1% DMSO control, read-out: Organoid viability by endpoint ATP assay, Viability ± SD) is 66 ± 7%; in series [1] (MCF7, listed as printed as 6 hours, 10 μM, relative to 1% DMSO, read-out: Comparisons of cell viability measures by ATP detection assay, Mean mass ± SD), 66 ± 7%; in series [2] (BT-474, listed as printed as 48 hours, 10 μM, relative to 1% DMSO, read-out: Comparisons of cell viability measures by ATP detection assay, Mean mass ± SD) it was 32 ± 4%; in series [2] (BT-474, 10 μM, 72 h of treatment, luminescence relative to 1% DMSO control, read-out: Organoid viability by endpoint ATP assay, Viability ± SD), 32 ± 4%. Also, the viability at 50 µM was 14 ± 3% in series [1] (MCF7, MCF-7, 72 h of treatment, luminescence relative to 1% DMSO control, read-out: Organoid viability by endpoint ATP assay, Viability ± SD); 14 ± 3% in series [1] (MCF7, listed as printed as 6 hours, relative to 1% DMSO, read-out: Comparisons of cell viability measures by ATP detection assay, Mean mass ± SD); 9 ± 7% in series [2] (BT-474, listed as printed as 48 hours, relative to 1% DMSO, read-out: Comparisons of cell viability measures by ATP detection assay, Mean mass ± SD); 9 ± 7% in series [2] (BT-474, 72 h of treatment, luminescence relative to 1% DMSO control, read-out: Organoid viability by endpoint ATP assay, Viability ± SD). For the same compound, the “Organoid viability by endpoint ATP assay, Viability ± SD” value in series [2] (BT-474, 0.1 μM, 72 h of treatment, luminescence relative to 1% DMSO control) is reported as “significant reductions in viability”.

In the case of `CN[C@@H]1C[C@H]2O[C@@](C)([C@@H]1OC)n1c3ccccc3c3c4c(c5c6ccccc6n2c5c31)C(=O)NC4` [Staurosporine, staurosporine], the viability at 0.1 µM came to 50 ± 8% in series [1] (setting [3]), 50 ± 8% in series [1] (setting [4]), 58 ± 14% in series [2] (setting [5]) and 58 ± 14% in series [2] (setting [6]). The viability at 1 µM in series [1] (setting [3]) is 17 ± 4%; in series [1] (setting [4]), 17 ± 4%; in series [2] (setting [5]), 2 ± 1%; in series [2] (setting [6]) it was 2 ± 1%. The viability at 10 µM turned out to be 13 ± 3% in series [1] (setting [3]), 13 ± 3% in series [1] (setting [4]), 1% in series [2] (setting [5]) and 1% in series [2] (setting [6]). For the same compound, the “Organoid viability by endpoint ATP assay, Viability ± SD” value is reported as “near-zero viability” in series [1] (MCF-7, 1 μM, 72 h of treatment, luminescence relative to 1% DMSO control); “near-zero viability” in series [1] (MCF-7, 10 μM, 72 h of treatment, luminescence relative to 1% DMSO control); “near-zero viability” in series [2] (BT-474, 1 μM, 72 h of treatment, luminescence relative to 1% DMSO control); “near-zero viability” in series [2] (BT-474, 10 μM, 72 h of treatment, luminescence relative to 1% DMSO control).
